Where a name gives a salt, the structure may show the parent alone.
Tested on: human primary T-cells, IL-2 stimulated proliferation (JAK-1 and JAK-3 dependent; reported as JAK3 activity)
Assay: Human primary T-cell proliferation stimulated by IL-2 (Example 3)
Assay type: cell-based
Conditions: Homo sapiens, T-cell, tested under conditions described in Example 3 (IL-2 stimulated human primary T-cell proliferation); read-out: ability to inhibit JAK3 activity, IC50 range (Table V)
Outline: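 Peripheral-blood human T-cells pre-activated via TCR/CD28, IL-2-starved overnight, then cultured 72 h at 37 °C with compound in Yssel's medium containing IL-2 (80 U/mL in cell suspension). Proliferation read as viable-cell ATP by CellTiter-Glo luminescence; reduction versus control taken as JAK pathway inhibition.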

`Cc1cnc(Nc2ccc(C(=O)NC3CCC3)cc2)nc1Nc1ccc2oc(=O)[nH]c2c1` [Compound I-138, N-Cyclobutyl-4-[5-methyl-4-(2-oxo-2,3-dihydro-benzooxazol-5-ylamino)-pyrimidin-2-ylamino]-benzamide formic acid salt] and `CN[C@@H]1CCCN(c2ccc(Nc3ncc(C)c(Nc4ccc5oc(=O)[nH]c5c4)n3)cn2)C1` [II-88, (R)-5-(5-methyl-2-(6-(3-(methylamino)piperidin-1-yl)pyridin-3-ylamino)pyrimidin-4-ylamino)benzo[d]oxazol-2(3H)-one] cannot be ordered by IC50: under 500 nM for the first, under 500 nM for the second.

`Cc1cnc(Nc2cnc(N3CC4CC3CN4C(=O)OC(C)(C)C)c(F)c2)nc1Nc1ccc2oc(=O)[nH]c2c1` (centres unmarked) [II-49, 5-{3-Fluoro-5-[5-methyl-4-(2-oxo-2,3-dihydro-benzooxazol-5-ylamino)-pyrimidin-2-ylamino]-pyridin-2-yl}-2,5-diaza-bicyclo[2.2.1]heptane-2-carboxylic acid tert-butyl ester] and `Cc1cnc(Nc2ccc(N3C[C@@H]4C[C@H]3CN4C)nc2)nc1Nc1ccc2oc(=O)[nH]c2c1` [II-31, N4-(benzoxazolin-2-on-5-yl)-N2-[2-((1S,4S)-5-methyl-2,5-diazabicyclo[2.2.1]heptan-2-yl)pyridin-5-yl]-5-methylpyrimidine-2,4-diamine] cannot be ordered by IC50: under 500 nM for the first, under 500 nM for the second.

Compared with `COc1ccc(Nc2ncc(C)c(Nc3ccc4oc(=O)[nH]c4c3)n2)cc1Cl` [Compound I-496, 5-[2-(3-Chloro-4-methoxy-phenylamino)-5-methyl-pyrimidin-4-ylamino]-3H-benzooxazol-2-one], `Cc1cnc(Nc2cc(Cl)cc(Br)c2)nc1Nc1ccc2oc(=O)[nH]c2c1` [Compound I-185, 5-[2-(3-Bromo-5-chloro-phenylamino)-5-methyl-pyrimidin-4-ylamino]-3H-benzooxazol-2-one] is higher in IC50: under 500 nM for the first, over 10000 nM for the second.

First: NS(=O)(=O)c1ccc(Nc2ncc(F)c(Nc3ccc4[nH]c(=O)[nH]c4c3)n2)cc1 [Compound I-13, 5-(5-fluoro-2-(4-aminosulfonylphenylamino)pyrimidin-4-ylamino)-1H-benzo[d]imidazol-2(3H)-one]
Second: Cc1cnc(Nc2ccc(C(N)=O)cc2)nc1Nc1ccc2oc(=O)n(COP(=O)(O)O)c2c1 [Compound I-147, (5-(2-(4-carbamoylphenylamino)-5-methylpyrimidin-4-ylamino)-2-oxobenzo[d]oxazol-3(2H)-yl)methyl dihydrogen phosphate]
The IC50 of the first is higher: 500 to 5000 nM for the first, under 500 nM for the second. The second is the more potent here.

`CCNC(=O)NC1CCN(c2ccc(Nc3ncc(C)c(Nc4ccc5oc(=O)[nH]c5c4)n3)cn2)C1` (centres unmarked) [II-96, 1-ethyl-3-(1-(5-(5-methyl-4-(2-oxo-2,3-dihydrobenzo[d]oxazol-5-ylamino)pyrimidin-2-ylamino)pyridin-2-yl)pyrrolidin-3-yl)urea] and `Cc1cnc(Nc2ccc(N3CC4CN(C)CC4C3)nc2)nc1Nc1ccc2oc(=O)[nH]c2c1` (centres unmarked) [II-120, 5-methyl-N2-[2-(3-methyl-3,7-diazabicyclo[3.3.0]octan-7-yl)pyridin-5-yl]-N4-(2-oxo-2,3-dihydro-1,3-benzoxazol-5-yl)-2,4-pyrimidinediamine] cannot be ordered by IC50: under 500 nM for the first, under 500 nM for the second.

`Cc1cnc(Nc2ccc(N3CCN(C(=O)OC(C)(C)C)CC3)nc2)nc1Nc1ccc2oc(=O)[nH]c2c1` [II-5, N4-(benzo[d]oxazol-2(3H)-on-5-yl)-N2-(6-(4-tert-butyloxycarbonylpiperazin-1-yl)pyridin-3-yl)-5-methylpyrimidine-2,4-diamine] and `COc1cc(Nc2ncc(C)c(Nc3ccc4oc(=O)[nH]c4c3)n2)ccc1C(=O)N1CCCC1` [Compound I-268, 5-(2-(3-methoxy-4-(pyrrolidine-1-carbonyl)phenylamino)-5-methylpyrimidin-4-ylamino)benzo[d]oxazol-2(3H)-one] cannot be ordered by IC50: under 500 nM for the first, under 500 nM for the second.

`Cc1cnc(Nc2cccc3c2OC(F)(F)O3)nc1Nc1ccc2oc(=O)[nH]c2c1` [IV-11, 5-[2-(2,2-Difluoro-benzo[1,3]dioxol-4-ylamino)-5-methyl-pyrimidin-4-ylamino]-3H-benzooxazol-2-one] and `Cc1cnc(Nc2ccc3c(c2)CN(CC(C)C)C3)nc1Nc1ccc2oc(=O)[nH]c2c1` [III-8, N4-(benzo[d]oxazol-2(3H)-on-5-yl)-N2-(2-isobutylisoindolin-5-yl)-5-methylpyrimidine-2,4-diamine] cannot be ordered by IC50: under 500 nM for the first, under 500 nM for the second.

`Cc1cnc(Nc2ccc(N3CC4(C)CN(C)CC(C)(C3)C4)c(F)c2)nc1Nc1ccc2oc(=O)[nH]c2c1` [Compound I-6, N4-(benzo[d]oxazol-2(3H)-on-5-yl)-N2-(3-fluoro-4-(1,5,7-trimethyl-3,7-diazabicyclo[3.3.1]nonan-3-yl)phenyl)-5-methylpyrimidine-2,4-diamine] and `Cc1cnc(Nc2ccc(-c3ccc(N4CCOCC4)nc3)cc2)nc1Nc1ccc2oc(=O)[nH]c2c1` [Compound I-512, 5-(5-methyl-2-(4-(6-morpholinopyridin-3-yl)phenylamino)pyrimidin-4-ylamino)benzo[d]oxazol-2(3H)-one trifluoroacetate salt] cannot be ordered by IC50: under 500 nM for the first, under 500 nM for the second.

Same assay, conditions: tested under conditions described in Example 3 (IL-2 stimulated human primary T-cell proliferation); read-out: ability to inhibit JAK3 activity, IC50 range (Table V)

First: Cc1cnc(Nc2ccc(S(C)(=O)=O)cc2)nc1Nc1ccc2oc(=O)n(C)c2c1 [Compound I-70, N2-((4-methylsulfonyl)phenyl)-N4-(3-methyl-2-oxo-2,3-dihydrobenzo[d]oxazol-5-yl)-5-methylpyrimidine-2,4-diamine]
Second: Cc1cnc(Nc2ccc(S(N)(=O)=O)cc2)nc1Nc1ccc2c(c1)oc(=O)n2C [Compound I-64, N2-((4-aminosulfonyl)phenyl)-N4-(3-methyl-2-oxo-2,3-dihydrobenzo[d]oxazol-6-yl)-5-methylpyrimidine-2,4-diamine]
The IC50 of the first is lower: under 500 nM for the first, over 10000 nM for the second. The first is the more potent here.

`Cn1c(=O)oc2cc(Nc3nc(Nc4cccc(S(N)(=O)=O)c4)ncc3F)ccc21` [Compound I-57, N2-((3-aminosulfonyl)phenyl)-N4-(3-methyl-2-oxo-2,3-dihydrobenzo[d]oxazol-6-yl)-5-fluoropyrimidine-2,4-diamine] and `Cn1c(=O)oc2ccc(Nc3nc(Nc4cccc(S(N)(=O)=O)c4)ncc3F)cc21` [Compound I-75, N2-((3-aminosulfonyl)phenyl)-N4-(3-methyl-2-oxo-2,3-dihydrobenzo[d]oxazol-5-yl)-5-fluoropyrimidine-2,4-diamine] cannot be ordered by IC50: under 500 nM for the first, under 500 nM for the second.

`Cc1cnc(Nc2ccc(F)c(OC(C)(C)C#N)c2)nc1Nc1ccc2oc(=O)[nH]c2c1` [Compound I-417, N2-[3-(1-cyano-1-methyl)ethoxy-4-fluoro]phenyl-5-methyl-N4-(2-oxo-2,3-dihydro-1,3-benzoxazol-5-yl)-2,4-pyrimidinediamine] and `Cc1cnc(Nc2ccc(Br)cc2)nc1Nc1ccc2oc(=O)[nH]c2c1` [Compound I-288, N2-(4-bromo)phenyl-5-methyl-N4-(2-oxo-2,3-dihydro-1,3-benzoxazol-5-yl)-2,4-pyrimidinediamine] cannot be ordered by IC50: under 500 nM for the first, under 500 nM for the second.

`CN(c1ccc(Nc2ncc(F)c(Nc3ccc4c(c3)oc(=O)n4C)n2)cc1)S(C)(=O)=O` [Compound I-97, N2-((4-methylsulfonyl-N-methylamino)phenyl)-N4-(3-methyl-2-oxo-2,3-dihydrobenzo[d]oxazol-6-yl)-5-fluoropyrimidine-2,4-diamine] and `Cn1c(=O)n(C)c2cc(Nc3nc(Nc4ccc(S(N)(=O)=O)cc4)ncc3F)ccc21` [Compound I-40, N4-(1,3-dimethylbenzimidazolin-2-on-5-yl)-N2-((4-aminosulfonyl)phenyl)-5-fluoropyrimidine-2,4-diamine] cannot be ordered by IC50: over 10000 nM for the first, over 10000 nM for the second.

`Cc1cnc(Nc2cccc(C#N)c2)nc1Nc1ccc2[nH]c(=O)[nH]c2c1` [Compound I-28, N4-(benzimidazolin-2-on-5-yl)-N2-(3-cyanophenyl)-5-methylpyrimidine-2,4-diamine] and `Cc1cnc(Nc2ccc(SC(F)(F)F)cc2)nc1Nc1ccc2oc(=O)[nH]c2c1` [Compound I-367, N2-(4-trifluoromethylthio)phenyl-5-methyl-N4-(2-oxo-2,3-dihydro-1,3-benzoxazol-5-yl)-2,4-pyrimidinediamine] cannot be ordered by IC50: under 500 nM for the first, under 500 nM for the second.

`COc1c(C)cc(Nc2ncc(C)c(Nc3ccc4oc(=O)[nH]c4c3)n2)cc1C` [Compound I-369, N2-(3,5-dimethyl-4-methoxy)phenyl-5-methyl-N4-(2-oxo-2,3-dihydro-1,3-benzoxazol-5-yl)-2,4-pyrimidinediamine] and `Cc1cnc(Nc2cc(C)c(Cl)c(C)c2)nc1Nc1ccc2oc(=O)[nH]c2c1` [Compound I-394, N2-(4-chloro-3,5-dimethyl)phenyl-5-methyl-N4-(2-oxo-2,3-dihydro-1,3-benzoxazol-5-yl)-2,4-pyrimidinediamine] cannot be ordered by IC50: under 500 nM for the first, under 500 nM for the second.

`Cc1cnc(Nc2ccc(NC3CCNCC3)nc2)nc1Nc1ccc2oc(=O)[nH]c2c1` [II-36, N4-(benzo[d]oxazol-2(3H)-on-5-yl)-N2-[2-(1H-piperidin-4-yl)aminopyridin-5-yl]-5-methylpyrimidine-2,4-diamine] and `Cc1cnc(Nc2ccc(N3CCN4CCC[C@@H]4C3)nc2)nc1Nc1ccc2oc(=O)[nH]c2c1` [II-132, N2-[2-(R-1,4-diazabicylco[4.3.0]nonan-4-yl)pyridin-5-yl]-5-methyl-N4-(2-oxo-2,3-dihydro-1,3-benzoxazol-5-yl)-2,4-pyrimidinediamine] cannot be ordered by IC50: under 500 nM for the first, under 500 nM for the second.

`Cc1cnc(Nc2cc(C)c(C)c(C)c2)nc1Nc1cc(Cl)c2oc(=O)[nH]c2c1` [Compound I-522, N4-(7-chloro-2-oxo-2,3-dihydro-1,3-benzoxazol-5-yl)-5-methyl-N2-(3,4,5-trimethyl)phenyl-2,4-pyrimidinediamine] and `Cc1cnc(Nc2cccc(N3CCOCC3)c2)nc1Nc1ccc2c(c1)oc(=O)n2C` [Compound I-49, N4-(3-methylbenzo[d]oxazol-2(3H)-on-6-yl)-N2-((3-morpholinyl)phenyl)-5-methylpyrimidine-2,4-diamine] cannot be ordered by IC50: under 500 nM for the first, under 500 nM for the second.

From patent publication US10005767B2, “Compositions and methods for inhibition of the JAK pathway” (Rigel Pharmaceuticals, Inc., priority 2009, dated 2018)
